Laboratory results taken from ChEMBL document CHEMBL2331477, “Effect of helical conformation and side chain structure on γ-secretase inhibition by β-peptide foldamers: insight into substrate recognition” (J Med Chem, 2013).
Calls of active or inactive are those of the source. The rule behind the calls is not given here.

Assays:
Gamma-secretase [1] = assay: Inhibition of gamma-secretase (unknown origin) expressed in N2a NL/N cells coexpressing betaAPPNL and NotchdeltaE assessed as Abeta42 secretion by ELISA; assay type: cell-based, Homo sapiens
Gamma-secretase [2] = assay: Inhibition of gamma-secretase (unknown origin) expressed in N2a NL/N cells coexpressing betaAPPNL and NotchdeltaE assessed as Abeta40 secretion by ELISA; assay type: cell-based, Homo sapiens
[3] = target: T1, Gamma-secretase (Homo sapiens) (UniProt Q96BI3+Q9NZ42+Q8WW43+P49768+Q92542+P49810); assay: Inhibition of gamma-secretase (unknown origin) expressed in N2a NL/N cells coexpressing betaAPPNL and NotchdeltaE assessed as Abeta42 secretion at 100 nM by ELISA; assay type: cell-based
[4] = target: T1, Gamma-secretase (Homo sapiens); assay: Inhibition of gamma-secretase (unknown origin) expressed in N2a NL/N cells coexpressing betaAPPNL and NotchdeltaE assessed as Abeta40 secretion at 100 nM by ELISA; assay type: cell-based

Structure (SMILES)	IC50 (Gamma-secretase [1]) [µM]	IC50 (Gamma-secretase [2]) [µM]	inhibition [3]	inhibition [4]
O=S(=O)(N[C@H](CO)C(C(F)(F)F)C(F)(F)F)c1ccc(Cl)s1 [BEGACESTAT]	0.414	0.203	–	–
CC(=O)N1CCC[C@H]1C(=O)N1CCC[C@H]1C(=O)N1CCC[C@H]1C(=O)N1CCC[C@H]1C(=O)N1CCC[C@H]1C(=O)N1CCC[C@H]1C(=O)N1CCC[C@H]1C(=O)N1CCC[C@H]1C(=O)N1CCC[C@H]1C(N)=O	> 30	> 30	–	–
CC(=O)N[C@H]1CCC[C@@H]1C(=O)N[C@H]1CCC[C@@H]1C(=O)N[C@H]1CCC[C@@H]1C(=O)N[C@H]1CCC[C@@H]1C(=O)N[C@H]1CCC[C@@H]1C(=O)N[C@@H](CC(N)=O)CC(=O)N[C@H]1CCC[C@@H]1C(=O)N[C@H]1CCC[C@@H]1C(=O)N[C@H]1CCC[C@@H]1C(=O)N[C@H]1CCC[C@@H]1C(=O)N[C@H]1CCC[C@@H]1C(=O)N[C@H]1CCC[C@@H]1C(N)=O	–	–	inactive	inactive
CC(=O)N[C@H]1CCC[C@@H]1C(=O)N[C@H]1CCC[C@@H]1C(=O)N[C@@H](CC(=O)N[C@H]1CCC[C@@H]1C(=O)N[C@H]1CCC[C@@H]1C(=O)N[C@H]1CCC[C@@H]1C(=O)N[C@H]1CCC[C@@H]1C(=O)N[C@H]1CCC[C@@H]1C(=O)N[C@H]1CCC[C@@H]1C(=O)N[C@H]1CCC[C@@H]1C(=O)N[C@H]1CCC[C@@H]1C(=O)N[C@H]1CCC[C@@H]1C(N)=O)[C@@H](C)O	–	–	inactive	inactive
CC(=O)N[C@H]1CCC[C@@H]1C(=O)N[C@H]1CCC[C@@H]1C(=O)N[C@H]1CCC[C@@H]1C(=O)N[C@H]1CCC[C@@H]1C(=O)N[C@H]1CCC[C@@H]1C(=O)N[C@@H](CC(=O)N[C@H]1CCC[C@@H]1C(=O)N[C@H]1CCC[C@@H]1C(=O)N[C@H]1CCC[C@@H]1C(=O)N[C@H]1CCC[C@@H]1C(=O)N[C@H]1CCC[C@@H]1C(=O)N[C@H]1CCC[C@@H]1C(N)=O)[C@@H](C)O	–	–	inactive	inactive
CC(=O)N[C@H]1CCC[C@@H]1C(=O)N[C@H]1CCC[C@@H]1C(=O)N[C@H]1CCC[C@@H]1C(=O)N[C@H]1CCC[C@@H]1C(=O)N[C@H]1CCC[C@@H]1C(=O)N[C@H]1CCC[C@@H]1C(=O)N[C@H]1CCC[C@@H]1C(=O)N[C@H]1CCC[C@@H]1C(=O)N[C@H](CC(=O)N[C@H]1CCC[C@@H]1C(=O)N[C@H]1CCC[C@@H]1C(=O)N[C@H]1CCC[C@@H]1C(N)=O)Cc1ccc(O)cc1	–	–	inactive	inactive
CC(=O)N1CCC[C@@H]1C(=O)N1CCC[C@@H]1C(=O)N1CCC[C@@H]1C(=O)N1CCC[C@@H]1C(=O)N1CCC[C@@H]1C(=O)N1CCC[C@@H]1C(=O)N1CCC[C@@H]1C(=O)N1CCC[C@@H]1C(=O)N1CCC[C@@H]1C(=O)N1CCC[C@@H]1C(=O)N1CCC[C@@H]1C(N)=O	> 30	> 30	–	–
CC(=O)N[C@H]1CCC[C@@H]1C(=O)N[C@H]1CCC[C@@H]1C(=O)N[C@H]1COC[C@@H]1C(=O)N[C@H]1CCC[C@@H]1C(=O)N[C@H]1CCC[C@@H]1C(=O)N[C@H]1CCC[C@@H]1C(=O)N[C@H]1CCC[C@@H]1C(=O)N[C@H]1CCC[C@@H]1C(=O)N[C@H]1CCC[C@@H]1C(=O)N[C@H]1CCC[C@@H]1C(=O)N[C@H]1CCC[C@@H]1C(=O)N[C@H]1CCC[C@@H]1C(N)=O	–	–	Active	Active
CC(=O)N1CCC[C@@H]1C(=O)N1CCC[C@@H]1C(=O)N1CCC[C@@H]1C(=O)N1CCC[C@@H]1C(=O)N1CCC[C@@H]1C(=O)N1CCC[C@@H]1C(N)=O	> 30	> 30	–	–
CC(=O)N[C@H]1CCC[C@@H]1C(=O)N[C@H]1CCC[C@@H]1C(=O)N[C@@H](CCC(N)=O)CC(=O)N[C@H]1CCC[C@@H]1C(=O)N[C@H]1CCC[C@@H]1C(=O)N[C@H]1CCC[C@@H]1C(=O)N[C@H]1CCC[C@@H]1C(=O)N[C@H]1CCC[C@@H]1C(=O)N[C@H]1CCC[C@@H]1C(=O)N[C@H]1CCC[C@@H]1C(=O)N[C@H]1CCC[C@@H]1C(=O)N[C@H]1CCC[C@@H]1C(N)=O	–	–	Active	Active
CC(=O)N[C@H]1CCC[C@@H]1C(=O)N[C@H]1CCC[C@@H]1C(=O)N[C@H]1CCC[C@@H]1C(=O)N[C@H]1CCC[C@@H]1C(=O)N[C@H]1CCC[C@@H]1C(=O)N[C@H]1CCC[C@@H]1C(=O)N[C@H]1CCC[C@@H]1C(=O)N[C@H]1CCC[C@@H]1C(=O)N[C@@H](CC(N)=O)CC(=O)N[C@H]1CCC[C@@H]1C(=O)N[C@H]1CCC[C@@H]1C(=O)N[C@H]1CCC[C@@H]1C(N)=O	–	–	inactive	inactive
CC(=O)N[C@H]1CCC[C@@H]1C(=O)N[C@H]1CCC[C@@H]1C(=O)N[C@@H](CCC(=O)O)CC(=O)N[C@H]1CCC[C@@H]1C(=O)N[C@H]1CCC[C@@H]1C(=O)N[C@H]1CCC[C@@H]1C(=O)N[C@H]1CCC[C@@H]1C(=O)N[C@H]1CCC[C@@H]1C(=O)N[C@H]1CCC[C@@H]1C(=O)N[C@H]1CCC[C@@H]1C(=O)N[C@H]1CCC[C@@H]1C(=O)N[C@H]1CCC[C@@H]1C(N)=O	–	–	Active	Active

The next lines start with the values.

IC50 (Gamma-secretase [1]) [µM]	IC50 (Gamma-secretase [2]) [µM]	inhibition [3]	inhibition [4]	Structure (SMILES)
0.225	0.244	–	–	CC(=O)N[C@H]1CCC[C@@H]1C(=O)N[C@H]1CCC[C@@H]1C(=O)N[C@H]1CCC[C@@H]1C(=O)N[C@H]1CCC[C@@H]1C(=O)N[C@H]1CCC[C@@H]1C(=O)N[C@H]1CCC[C@@H]1C(=O)N[C@H]1CCC[C@@H]1C(=O)N[C@H]1CCC[C@@H]1C(=O)N[C@H]1CCC[C@@H]1C(=O)N[C@H]1CCC[C@@H]1C(=O)N[C@H]1CCC[C@@H]1C(N)=O
–	–	inactive	inactive	CC(=O)N[C@H]1CCC[C@@H]1C(=O)N[C@H]1CCC[C@@H]1C(=O)N[C@H]1CCC[C@@H]1C(=O)N[C@H]1CCC[C@@H]1C(=O)N[C@H]1CCC[C@@H]1C(=O)N[C@H]1CCC[C@@H]1C(=O)N[C@H]1CCC[C@@H]1C(=O)N[C@H]1CCC[C@@H]1C(=O)NC(CO)CC(=O)N[C@H]1CCC[C@@H]1C(=O)N[C@H]1CCC[C@@H]1C(=O)N[C@H]1CCC[C@@H]1C(N)=O (single isomer, unassigned)
–	–	Active	Active	CC(=O)N[C@H]1CCC[C@@H]1C(=O)N[C@H]1CCC[C@@H]1C(=O)N[C@@H](C)CC(=O)N[C@H]1CCC[C@@H]1C(=O)N[C@H]1CCC[C@@H]1C(=O)N[C@H]1CCC[C@@H]1C(=O)N[C@H]1CCC[C@@H]1C(=O)N[C@H]1CCC[C@@H]1C(=O)N[C@H]1CCC[C@@H]1C(=O)N[C@H]1CCC[C@@H]1C(=O)N[C@H]1CCC[C@@H]1C(=O)N[C@H]1CCC[C@@H]1C(N)=O
–	–	inactive	inactive	CC(=O)N[C@H]1CCC[C@@H]1C(=O)N[C@H]1CCC[C@@H]1C(=O)N[C@H]1CCC[C@@H]1C(=O)N[C@H]1CCC[C@@H]1C(=O)N[C@H]1CCC[C@@H]1C(=O)N[C@@H](CCC(=O)O)CC(=O)N[C@H]1CCC[C@@H]1C(=O)N[C@H]1CCC[C@@H]1C(=O)N[C@H]1CCC[C@@H]1C(=O)N[C@H]1CCC[C@@H]1C(=O)N[C@H]1CCC[C@@H]1C(=O)N[C@H]1CCC[C@@H]1C(N)=O
–	–	inactive	inactive	CC(=O)N[C@H]1CCC[C@@H]1C(=O)N[C@H]1CCC[C@@H]1C(=O)N[C@H]1CCC[C@@H]1C(=O)N[C@H]1CCC[C@@H]1C(=O)N[C@H]1CCC[C@@H]1C(=O)N[C@H]1CCC[C@@H]1C(=O)N[C@H]1CCC[C@@H]1C(=O)N[C@H]1CCC[C@@H]1C(=O)N[C@@H](CCC(=O)O)CC(=O)N[C@H]1CCC[C@@H]1C(=O)N[C@H]1CCC[C@@H]1C(=O)N[C@H]1CCC[C@@H]1C(N)=O
–	–	inactive	inactive	CC(=O)N[C@H]1CCC[C@@H]1C(=O)N[C@H]1CCC[C@@H]1C(=O)N[C@H]1CCC[C@@H]1C(=O)N[C@H]1CCC[C@@H]1C(=O)N[C@H]1CCC[C@@H]1C(=O)N[C@@H](CCC(N)=O)CC(=O)N[C@H]1CCC[C@@H]1C(=O)N[C@H]1CCC[C@@H]1C(=O)N[C@H]1CCC[C@@H]1C(=O)N[C@H]1CCC[C@@H]1C(=O)N[C@H]1CCC[C@@H]1C(=O)N[C@H]1CCC[C@@H]1C(N)=O
–	–	Active	Active	CC(=O)N[C@H]1CCC[C@@H]1C(=O)N[C@H]1CCC[C@@H]1C(=O)N[C@H](CC(=O)N[C@H]1CCC[C@@H]1C(=O)N[C@H]1CCC[C@@H]1C(=O)N[C@H]1CCC[C@@H]1C(=O)N[C@H]1CCC[C@@H]1C(=O)N[C@H]1CCC[C@@H]1C(=O)N[C@H]1CCC[C@@H]1C(=O)N[C@H]1CCC[C@@H]1C(=O)N[C@H]1CCC[C@@H]1C(=O)N[C@H]1CCC[C@@H]1C(N)=O)CC(C)C
–	–	inactive	inactive	CC(=O)N[C@H]1CCC[C@@H]1C(=O)N[C@H]1CCC[C@@H]1C(=O)N[C@H]1CCC[C@@H]1C(=O)N[C@H]1CCC[C@@H]1C(=O)N[C@H]1CCC[C@@H]1C(=O)N[C@H](CC(=O)N[C@H]1CCC[C@@H]1C(=O)N[C@H]1CCC[C@@H]1C(=O)N[C@H]1CCC[C@@H]1C(=O)N[C@H]1CCC[C@@H]1C(=O)N[C@H]1CCC[C@@H]1C(=O)N[C@H]1CCC[C@@H]1C(N)=O)CC(C)C
> 30	> 30	–	–	CC(=O)N1CCC[C@H]1C(=O)N1CCC[C@H]1C(=O)N1CCC[C@H]1C(=O)N1CCC[C@H]1C(=O)N1CCC[C@H]1C(=O)N1CCC[C@H]1C(N)=O
–	–	inactive	inactive	CC(=O)N[C@H]1CCC[C@@H]1C(=O)N[C@H]1CCC[C@@H]1C(=O)N[C@H]1CCC[C@@H]1C(=O)N[C@H]1CCC[C@@H]1C(=O)N[C@H]1CCC[C@@H]1C(=O)N[C@H]1CCC[C@@H]1C(=O)N[C@H]1CCC[C@@H]1C(=O)N[C@H]1CCC[C@@H]1C(=O)N[C@@H](CC(=O)N[C@H]1CCC[C@@H]1C(=O)N[C@H]1CCC[C@@H]1C(=O)N[C@H]1CCC[C@@H]1C(N)=O)[C@@H](C)O
–	–	Active	Active	CC(=O)N[C@H]1CCC[C@@H]1C(=O)N[C@H]1CCC[C@@H]1C(=O)N[C@@H](CS)CC(=O)N[C@H]1CCC[C@@H]1C(=O)N[C@H]1CCC[C@@H]1C(=O)N[C@H]1CCC[C@@H]1C(=O)N[C@H]1CCC[C@@H]1C(=O)N[C@H]1CCC[C@@H]1C(=O)N[C@H]1CCC[C@@H]1C(=O)N[C@H]1CCC[C@@H]1C(=O)N[C@H]1CCC[C@@H]1C(=O)N[C@H]1CCC[C@@H]1C(N)=O
